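Step 1: Grow cells in 96-well plates. Step 2: Expose to compound for 48 hours at 5 concentrations. Step 3: Interpolate endpoints linearly; if unreached, use highest concentration. GI50 = concentration required for 50% inhibition of growth.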 Active and inactive are the calls of the source. No stated cut-off is given here; in the data, active = GI50 up to about 1.1 µM and inactive = higher.
Experiments:
Test in all cases: NCI tumour cell line growth inhibition, 48 h
ACHN = tested on: ACHN
CAKI-1 = tested on: CAKI-1
EKVX = tested on: EKVX
HCC 2998 = tested on: HCC 2998
HCT-116 = tested on: HCT-116
HOP-62 = tested on: HOP-62
HT-29 = tested on: HT-29
Hs-578T = tested on: Hs-578T
M14 = tested on: M14
MDA-MB-231 = tested on: MDA-MB-231
MDA-MB-435 = tested on: MDA-MB-435
MOLT-4 = tested on: MOLT-4
NCI/ADR-RES = tested on: NCI/ADR-RES
OVCAR-4 = tested on: OVCAR-4
OVCAR-5 = tested on: OVCAR-5
PC-3 = tested on: PC-3
SW-620 = tested on: SW-620
U-251 = tested on: U-251
UO-31 = tested on: UO-31
RXF 393 = tested on: RXF 393

Measured: GI50

O=C(/C=C/c1ccc2c(c1)OCO2)NCc1ccco1
inactive: ACHN > 100 µM | CAKI-1 > 100 µM | EKVX 71.6 µM | HCC 2998 > 100 µM | HCT-116 > 100 µM | HOP-62 > 100 µM | HT-29 > 100 µM | Hs-578T > 100 µM | M14 > 100 µM | MDA-MB-231 > 100 µM | MDA-MB-435 > 100 µM | MOLT-4 > 100 µM | NCI/ADR-RES > 100 µM | OVCAR-4 41.6 µM | OVCAR-5 > 100 µM | PC-3 > 100 µM | SW-620 > 100 µM | U-251 > 100 µM | UO-31 67.1 µM

CCOC(=O)C1CCC(=O)N1C(=O)c1cccc(Cl)c1 (stereo unspecified)
inactive: ACHN > 100 µM | CAKI-1 > 100 µM | EKVX > 100 µM | HCT-116 > 100 µM | HOP-62 > 100 µM | HT-29 > 100 µM | Hs-578T > 100 µM | M14 > 100 µM | MDA-MB-231 > 100 µM | MDA-MB-435 > 100 µM | MOLT-4 > 100 µM | NCI/ADR-RES > 100 µM | OVCAR-5 > 100 µM | PC-3 > 100 µM | RXF 393 > 100 µM | SW-620 > 100 µM | U-251 > 100 µM | UO-31 > 100 µM

C/C(=N\NC(=S)N1CC2CCC(CC2)C1)c1nccs1
active: ACHN 0.3 µM | CAKI-1 0.634 µM | EKVX 0.0789 µM | HCC 2998 0.268 µM | HCT-116 < 0.0187 µM | HOP-62 0.395 µM | HT-29 0.07 µM | M14 0.249 µM | MDA-MB-435 0.413 µM | MOLT-4 < 0.0196 µM | NCI/ADR-RES < 0.0295 µM | OVCAR-4 0.261 µM | OVCAR-5 0.143 µM | PC-3 0.228 µM | RXF 393 0.336 µM | SW-620 0.11 µM | U-251 0.185 µM | UO-31 0.129 µM
inactive: Hs-578T 6.1 µM

O=C1NC(N2CCCCC2)=N/C1=C\c1ccccc1O
inactive: ACHN > 100 µM | CAKI-1 > 100 µM | EKVX > 100 µM | HCT-116 > 100 µM | HOP-62 > 100 µM | HT-29 > 100 µM | Hs-578T 77.3 µM | M14 > 100 µM | MDA-MB-231 > 100 µM | MDA-MB-435 > 100 µM | MOLT-4 > 100 µM | NCI/ADR-RES > 100 µM | OVCAR-4 13 µM | OVCAR-5 > 100 µM | PC-3 > 100 µM | RXF 393 > 100 µM | SW-620 > 100 µM | U-251 > 100 µM | UO-31 > 100 µM

O=c1[nH]nc(-c2ccccc2)n1-c1cccc([N+](=O)[O-])c1
inactive: ACHN > 100 µM | CAKI-1 89.5 µM | EKVX > 100 µM | HCC 2998 > 100 µM | HCT-116 > 100 µM | HOP-62 > 100 µM | HT-29 > 100 µM | Hs-578T > 100 µM | M14 > 100 µM | MDA-MB-231 > 100 µM | MDA-MB-435 > 100 µM | MOLT-4 > 100 µM | NCI/ADR-RES > 100 µM | OVCAR-4 > 100 µM | OVCAR-5 > 100 µM | RXF 393 > 100 µM | SW-620 > 100 µM | U-251 > 100 µM | UO-31 38.5 µM

Cc1cccc(N(C(=O)Nc2ccc(Cl)c(Cl)c2)C2=NCC(C)S2)c1 (stereo unspecified)
active: M14 0.55 µM
inactive: ACHN 50.1 µM | CAKI-1 46.5 µM | EKVX 84.7 µM | HCC 2998 36.8 µM | HCT-116 43.1 µM | HOP-62 > 100 µM | HT-29 11.4 µM | Hs-578T 32.5 µM | MDA-MB-231 29.8 µM | MOLT-4 16.2 µM | NCI/ADR-RES 28 µM | OVCAR-4 41.6 µM | OVCAR-5 > 100 µM | PC-3 43.9 µM | SW-620 32.1 µM | U-251 62.5 µM | UO-31 > 100 µM

Cc1cccc(Br)[n+]1[O-]
inactive: ACHN > 100 µM | CAKI-1 > 100 µM | EKVX > 100 µM | HCT-116 > 100 µM | HOP-62 > 100 µM | HT-29 > 100 µM | Hs-578T > 100 µM | M14 > 100 µM | MDA-MB-231 91.6 µM | MDA-MB-435 > 100 µM | MOLT-4 > 100 µM | NCI/ADR-RES > 100 µM | OVCAR-4 > 100 µM | OVCAR-5 > 100 µM | PC-3 > 100 µM | RXF 393 > 100 µM | SW-620 > 100 µM | U-251 > 100 µM | UO-31 > 100 µM

From ChEMBL document CHEMBL1201862, “PubChem BioAssay data set” (2004)
